Test results as given in patent publication US5959109A, “Compounds and methods for increasing endogenous levels of corticotropin-releasing factor” (Neurocrine Biosciences, Inc., priority 1996, dated 1999).
Ends that are not written are not given here.

Tests used:
[1] = Elevated plus-maze test; assay type: in vivo, rat; settings: ICV
From the text: The Elevated plus-maze test predicts how animals respond to an approach-avoidance situation involving an exposed, lighted space versus a dark, enclosed area. In the maze, both spaces are elevated off the ground and constitute two runways intersecting in the form of a plus sign. This type of approach-avoidance situation is a classical test of "emotionality" and is very sensitive to treatments that produce disinhibition (such as sedative or hypnotic drugs) and stress. No motivational constraints are necessary and the animal is free to remain in the dark or venture out onto the open arms.
The elevated plus-maze apparatus has four arms (50 cm long, 10 cm wide) situated at right angles to each other and elevated from the floor (50 cm). Two of the arms are enclosed with walls (40 cm high) and two arms have no walls (open arms). Subjects are placed individually into the center of the maze and allowed free access to all four arms for a 5 minute testing period. The time spent in each arm is recorded automatically by photocell beams and a computer interface.
Groups of 7-10 rats receive ICV injections of the ligand inhibitor. For purposes of comparison, rats also receive 0 or 0.1-25 μg of h/rCRF (1-41).

[2] = tested on: CRF receptors; settings: rat, in vivo; cited from earlier work
[3] = cited from earlier work
[4] = tested on: human CRF-BP; settings: cited from earlier work
[5] = Automated passive avoidance learning; assay type: in vivo, rat; settings: oral, 5 minutes after training period; FIGS. 5A, 5B
Procedure: FIGS. 5A and 5B are graphs depicting the effect of administration of representative ligand inhibitors of this invention, Compound Nos. 97-1 and 153, respectively. The ligand inhibitors were administered 5 minutes post-training period in the passive avoidance test.
The apparatus for both rats and mice is the same as used in active avoidance testing (see Example 14).
For the training trial, the animal is placed individually in one compartment of the learning apparatus, which is separated from a second compartment by a guillotine door. Following a three minute habituation period, the door is opened and the latency to enter the second compartment is recorded. When the animal enters with all four paws, the door is closed, and a 0.5 second AC footshock (Coulburn precision shocker) is delivered. After five seconds, the subject is removed and placed in its home cage. At the time of testing (usually 1-7 days later), the animal is returned to the compartment in which it was initially placed for the learning trial, the door is opened and the latency to enter the second compartment is recorded, but the animal is not shocked. […]
For most strains of rats with weights between 150 and 350 grams, an effective footshock intensity ranges from 0.2-1.0 mA. […] The latency time of rats to enter the dark compartment is measured. […]

[6] = Morris water maze test; assay type: in vivo, rat; settings: 1 or 20 mg/kg oral, 15 minutes prior to testing; FIGS. 4A, 4B
Procedure: As discussed in more detail below (see Example 6), 15 minutes prior to training on each of days 1-3, groups of animals orally receive control solution or a dosage of the ligand inhibitor. Control animals typically reach the platform within five to ten seconds after three days of training. The measure of the memory modulator effects of a ligand inhibitor is a shift of this time period. Administration of a ligand inhibitor results in a dose-dependent increase in availability of synaptic CRF and a behavioral dose-dependent increase in acquisition and memory retention.
The Morris Water Maze Test is a simple spatial learning task that requires a minimal amount of stress and experience. […] The latency time to find a hidden platform is monitored. […]
The apparatus used in this test is a pool (46.4 cm in diameter, 45.7 cm high) filled to a depth of 23 cm with opaque water (22° C.-25° C.). […] The animal is placed into a designated quadrant of the tank and the time to approach and ascend the hidden platform is measured; the location of subject placement and platform remain constant throughout the experiment. […]
Rats were treated by oral administration with either vehicle or 1 or 20 mg/kg of either Compound No. 1 or Compound No. 153 15 minutes prior to testing. The latency time to reach the platform in the Morris water maze was recorded for each group.

[7] = tested on: CRF/CRF-BP complexes; experiment: Disruption of CRF/CRF-BP complexes in human brain tissue in vitro; assay type: binding
From the text: Other peptide molecules, which are distinct from CRF, bind CRF-BP. For example, the human neuropeptide urocortin (Vaughan et al., Nature 378:287, 1995) has a high affinity for human CRF-BP. […] Thus, CRF-BP may be a modulator of a family of CRF-related peptides. […] Such disruption has the effect of increasing free CRF levels, thus making more CRF available for binding to its receptors. The ligand inhibitors of the present invention may also be used to elevate free levels of urocortin and other members of the CRF family in mammals. Assays for measuring the increase of urocortin (as well as other CRF-related peptides) are performed essentially as described herein for CRF, except that the appropriate detection molecules are employed (e.g., antibody to urocortin). Moreover, urocortin, sauvagine, urotensin, and the like and their analogues may be used to inhibit CRF/CRF-BP complexes and raise free CRF levels or inhibit urocortin/CRF-BP complexes and raise free urocortin levels.

## human CRF: peptide that regulates the release of adrenocorticotropin (ACTH), β-endorphin, and other POMC-derived peptides from the pituitary
[1]
  time on the open arms / performance: significantly more time on the open arms, indicating increased anxiety
[2]
  carbachol-induced behaviors: inhibits carbachol-induced behaviors
[3]; rat, in vivo
  nocturnal food intake: significant decrease on nocturnal food intake
  temperature response in brown adipose tissue: increased temperature response in brown adipose tissue
[3]; rats
  body weight: lowered body weight in rats
[4]
  affinity for CRF-BP: high affinity

## COc1ccc(Cn2c(O)c(C=Nc3ncc(C)s3)c(=O)n(Cc3ccc(OC)cc3OC)c2=S)c(OC)c1 [Compound 153]
[5]
  latency time to entering the dark compartment: increase in medium latency time
[6]
  latency time to reach the platform / performance: improved performance at each time interval

## rat urocortin: rat urocortin (DDPPLSIDLTFHLLRTLLELARTQSQRERAEQNRIIFDSV; ends and bridges not checked; UniProt P55090 81-120, looked up)
[7]
  disruption of CRF/CRF-BP complexes: can disrupt the CRF/CRF-BP complexes
